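Cells were grown in 96-well plates and exposed to each compound for 48 hours at five concentrations; endpoints were interpolated linearly between bracketing concentrations, or set to the highest concentration if not reached. The concentration for full growth arrest is given as TGI.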
Experiments:
Assay in all cases: NCI-60 cell line screen, 48 h
HL-60(TB) leukemia = tested on: HL-60(TB) leukemia
A498 renal = tested on: A498 renal
NCI-H522 lung = tested on: NCI-H522 lung
UACC-257 melanoma = tested on: UACC-257 melanoma
K-562 leukemia = tested on: K-562 leukemia
NCI-H460 lung = tested on: NCI-H460 lung
SF-539 CNS = tested on: SF-539 CNS
SK-MEL-2 melanoma = tested on: SK-MEL-2 melanoma
SK-MEL-5 melanoma = tested on: SK-MEL-5 melanoma
M14 melanoma = tested on: M14 melanoma

In the case of `COc1ccc(C(=O)c2[nH]c(Nc3ccc(Cl)cc3)c(C(=S)Nc3ccccc3)c2N)cc1`, the TGI (HL-60(TB) leukemia) is reported as greater than 100 µM, the TGI (A498 renal) is reported as greater than 100 µM and the TGI (NCI-H522 lung) is reported as greater than 100 µM. The TGI (UACC-257 melanoma) was greater than 100 µM, the TGI (K-562 leukemia) was greater than 100 µM and the TGI (NCI-H460 lung) was greater than 100 µM. It also gave a TGI (SF-539 CNS) greater than 100 µM, a TGI (SK-MEL-2 melanoma) greater than 100 µM and a TGI (SK-MEL-5 melanoma) greater than 100 µM.
Compound `CCN(c1cccc(NC(=S)Nc2ccccc2N(CC)c2cc(-c3ccccc3)no2)c1)c1cc(-c2ccccc2)no1` has a TGI (HL-60(TB) leukemia) greater than 100 µM, a TGI (NCI-H522 lung) greater than 100 µM and a TGI (UACC-257 melanoma) greater than 100 µM. The TGI (K-562 leukemia) was greater than 100 µM, the TGI (NCI-H460 lung) was greater than 100 µM and the TGI (SF-539 CNS) was greater than 100 µM. For the same compound, the TGI (M14 melanoma) was greater than 100 µM, the TGI (SK-MEL-2 melanoma) was greater than 100 µM and the TGI (SK-MEL-5 melanoma) was greater than 100 µM.
With `Cc1ccc(CC(C)N)cc1` (stereo not drawn) the TGI (HL-60(TB) leukemia) was greater than 100 µM, the TGI (A498 renal) was greater than 100 µM and the TGI (NCI-H522 lung) was greater than 100 µM. For the same compound, the TGI (UACC-257 melanoma) was greater than 100 µM, the TGI (K-562 leukemia) was greater than 100 µM and the TGI (NCI-H460 lung) was greater than 100 µM. For the same compound, the TGI (SF-539 CNS) was greater than 100 µM, the TGI (M14 melanoma) was greater than 100 µM and the TGI (SK-MEL-2 melanoma) was greater than 100 µM. For the same compound, the TGI (SK-MEL-5 melanoma) was greater than 100 µM.
`FC(F)(F)c1ccc2nc(Sc3ccccn3)cnc2c1` was tested, and the TGI (HL-60(TB) leukemia) was 31.7 µM, the TGI (A498 renal) was 54.1 µM and the TGI (NCI-H522 lung) was 43.7 µM. For the same compound, the TGI (UACC-257 melanoma) was greater than 100 µM, the TGI (K-562 leukemia) was greater than 100 µM and the TGI (NCI-H460 lung) was greater than 100 µM. For the same compound, the TGI (SF-539 CNS) was 35.9 µM, the TGI (M14 melanoma) was greater than 100 µM and the TGI (SK-MEL-2 melanoma) was 31.1 µM. It also gave a TGI (SK-MEL-5 melanoma) of 66.2 µM.
In the case of `COc1ccc(/C=C2\CN(C)C/C(=C\c3ccc(OC)c(OC)c3OC)C2=O)c(OC)c1OC`, the TGI (HL-60(TB) leukemia) is reported as 0.044 µM, the TGI (A498 renal) is reported as 0.313 µM and the TGI (NCI-H522 lung) is reported as 0.473 µM. The TGI (UACC-257 melanoma) was 0.571 µM, the TGI (NCI-H460 lung) was 0.435 µM and the TGI (SF-539 CNS) was 0.311 µM. It also gave a TGI (M14 melanoma) of 0.283 µM, a TGI (SK-MEL-2 melanoma) of 2.4 µM and a TGI (SK-MEL-5 melanoma) of 0.705 µM.
Compound `COc1nc(N)c(N=CC(OC(C)=O)C(OC(C)=O)C(COC(C)=O)OC(C)=O)c(=O)n1C` (stereo not drawn) has a TGI (HL-60(TB) leukemia) greater than 100 µM, a TGI (A498 renal) greater than 100 µM and a TGI (NCI-H522 lung) greater than 100 µM. The TGI (UACC-257 melanoma) was greater than 100 µM, the TGI (K-562 leukemia) was greater than 100 µM and the TGI (NCI-H460 lung) was greater than 100 µM. The TGI (SF-539 CNS) was greater than 100 µM, the TGI (M14 melanoma) was greater than 100 µM and the TGI (SK-MEL-2 melanoma) was greater than 100 µM. The TGI (SK-MEL-5 melanoma) was greater than 100 µM.
Work on `O=C(Nc1cccc(F)c1)c1cc2ccc(O)cc2oc1=Nc1ccccc1F` yielded a TGI (HL-60(TB) leukemia) of 7.48 µM, a TGI (A498 renal) of 35.6 µM and a TGI (NCI-H522 lung) of 10.3 µM. It also gave a TGI (UACC-257 melanoma) of 31.1 µM, a TGI (K-562 leukemia) greater than 100 µM and a TGI (NCI-H460 lung) greater than 100 µM. It also gave a TGI (SF-539 CNS) of 27 µM, a TGI (M14 melanoma) of 17.4 µM and a TGI (SK-MEL-2 melanoma) of 18.7 µM. The TGI (SK-MEL-5 melanoma) was 9.57 µM.
`CC(C)CN=C(N)N=C(N)N` was tested, and the TGI (HL-60(TB) leukemia) was greater than 100 µM, the TGI (NCI-H522 lung) was greater than 100 µM and the TGI (UACC-257 melanoma) was greater than 100 µM. It also gave a TGI (K-562 leukemia) greater than 100 µM, a TGI (NCI-H460 lung) greater than 100 µM and a TGI (SF-539 CNS) greater than 100 µM. The TGI (M14 melanoma) was greater than 100 µM, the TGI (SK-MEL-2 melanoma) was greater than 100 µM and the TGI (SK-MEL-5 melanoma) was greater than 100 µM.
With `COc1cc(C(c2ccc3c(c2)OCO3)N2C(=O)CCC2C(=O)O)cc(OC)c1OC` (stereo not drawn) the TGI (HL-60(TB) leukemia) was greater than 100 µM, the TGI (A498 renal) was greater than 100 µM and the TGI (NCI-H522 lung) was greater than 100 µM. The TGI (UACC-257 melanoma) was greater than 100 µM, the TGI (K-562 leukemia) was greater than 100 µM and the TGI (NCI-H460 lung) was greater than 100 µM. For the same compound, the TGI (SF-539 CNS) was greater than 100 µM, the TGI (M14 melanoma) was greater than 100 µM and the TGI (SK-MEL-2 melanoma) was greater than 100 µM. The TGI (SK-MEL-5 melanoma) was greater than 100 µM.
For `N#C/C(=C\c1c[nH]c2ccccc12)C(=O)c1ccc(O)c(O)c1`, the TGI (HL-60(TB) leukemia) was 59.5 µM, the TGI (A498 renal) was greater than 100 µM and the TGI (NCI-H522 lung) was greater than 93 µM. It also gave a TGI (UACC-257 melanoma) greater than 100 µM, a TGI (K-562 leukemia) greater than 67 µM and a TGI (NCI-H460 lung) greater than 100 µM. For the same compound, the TGI (SF-539 CNS) was greater than 83.7 µM, the TGI (M14 melanoma) was greater than 100 µM and the TGI (SK-MEL-2 melanoma) was greater than 80.3 µM. For the same compound, the TGI (SK-MEL-5 melanoma) was greater than 100 µM.
`Cc1nc(-c2ccc(N=Cc3ccc(N(CCOS(C)(=O)=O)CCOS(C)(=O)=O)cc3C)cc2)cs1` gave a TGI (HL-60(TB) leukemia) of 47.3 µM, a TGI (A498 renal) of 11.4 µM and a TGI (NCI-H522 lung) greater than 100 µM. For the same compound, the TGI (UACC-257 melanoma) was greater than 100 µM, the TGI (K-562 leukemia) was greater than 100 µM and the TGI (NCI-H460 lung) was greater than 100 µM. For the same compound, the TGI (SF-539 CNS) was 8.84 µM, the TGI (M14 melanoma) was greater than 100 µM and the TGI (SK-MEL-2 melanoma) was greater than 100 µM. It also gave a TGI (SK-MEL-5 melanoma) of 38.5 µM.
Work on `C[C@H]1C=C2[C@@H]3CC(C)(C(=O)O)CC[C@]3(C)CC[C@]2(C)[C@]2(C)CC[C@H]3C(C)(C)[C@@H](OC(=O)c4cccc5c(=O)c6ccccc6[nH]c45)CC[C@]3(C)[C@@H]12` (stereo partly drawn) yielded a TGI (HL-60(TB) leukemia) greater than 100 µM, a TGI (A498 renal) greater than 100 µM and a TGI (NCI-H522 lung) greater than 100 µM. For the same compound, the TGI (UACC-257 melanoma) was greater than 100 µM, the TGI (K-562 leukemia) was greater than 100 µM and the TGI (NCI-H460 lung) was greater than 100 µM. The TGI (SF-539 CNS) was greater than 100 µM, the TGI (M14 melanoma) was greater than 100 µM and the TGI (SK-MEL-2 melanoma) was greater than 100 µM. The TGI (SK-MEL-5 melanoma) was greater than 100 µM.
With `CCOc1cc(NC(C)=O)ccc1C(=O)NN1C(=O)C(Cl)C1c1ccco1` (stereo not drawn) the TGI (HL-60(TB) leukemia) was 43.4 µM, the TGI (A498 renal) was 30.8 µM and the TGI (NCI-H522 lung) was 25.5 µM. The TGI (UACC-257 melanoma) was 34.2 µM, the TGI (K-562 leukemia) was 51.3 µM and the TGI (NCI-H460 lung) was 35.1 µM. For the same compound, the TGI (SF-539 CNS) was 38 µM, the TGI (M14 melanoma) was 36.8 µM and the TGI (SK-MEL-2 melanoma) was 37.3 µM. It also gave a TGI (SK-MEL-5 melanoma) of 27.9 µM.
Work on `Cc1ccc(/C=C2\CCCC(CN3CCCCC3)C2=O)cc1` (stereo not drawn) yielded a TGI (HL-60(TB) leukemia) greater than 100 µM, a TGI (A498 renal) of 26.1 µM and a TGI (NCI-H522 lung) of 3.22 µM. For the same compound, the TGI (UACC-257 melanoma) was 4.02 µM, the TGI (K-562 leukemia) was greater than 100 µM and the TGI (NCI-H460 lung) was 15.9 µM. For the same compound, the TGI (SF-539 CNS) was 15.6 µM, the TGI (SK-MEL-2 melanoma) was 9.91 µM and the TGI (SK-MEL-5 melanoma) was 17.4 µM.
In the case of `COc1cccc(N2C(=O)C3c4[nH]c5ccc(C)cc5c4C4CCC(C(C)(C)C)CC4C3C2=O)c1` (stereo not drawn), the TGI (HL-60(TB) leukemia) is reported as 4.21 µM, the TGI (A498 renal) is reported as greater than 10 µM and the TGI (NCI-H522 lung) is reported as 5.66 µM. It also gave a TGI (K-562 leukemia) of 7.67 µM, a TGI (NCI-H460 lung) of 4.43 µM and a TGI (SF-539 CNS) of 7.41 µM. The TGI (M14 melanoma) was greater than 10 µM, the TGI (SK-MEL-2 melanoma) was greater than 10 µM and the TGI (SK-MEL-5 melanoma) was greater than 10 µM.
`CSCCC(NC(=O)Cc1ccc(C(=O)c2ccccc2)cc1)C(=O)O` (stereo not drawn) gave a TGI (HL-60(TB) leukemia) greater than 100 µM, a TGI (A498 renal) greater than 100 µM and a TGI (NCI-H522 lung) greater than 100 µM. The TGI (UACC-257 melanoma) was greater than 100 µM, the TGI (K-562 leukemia) was greater than 100 µM and the TGI (NCI-H460 lung) was greater than 100 µM. It also gave a TGI (SF-539 CNS) greater than 100 µM, a TGI (M14 melanoma) greater than 100 µM and a TGI (SK-MEL-2 melanoma) greater than 100 µM. It also gave a TGI (SK-MEL-5 melanoma) greater than 100 µM.
Work on `COc1cc(/C=C(/C#N)C(N)=O)ccc1O` yielded a TGI (HL-60(TB) leukemia) greater than 100 µM, a TGI (A498 renal) greater than 100 µM and a TGI (NCI-H522 lung) greater than 100 µM. The TGI (UACC-257 melanoma) was greater than 100 µM, the TGI (K-562 leukemia) was greater than 100 µM and the TGI (NCI-H460 lung) was greater than 100 µM. It also gave a TGI (SF-539 CNS) greater than 100 µM, a TGI (SK-MEL-2 melanoma) greater than 100 µM and a TGI (SK-MEL-5 melanoma) greater than 100 µM.

Source: PubChem BioAssay (NCI)
